Source: ChEMBL document CHEMBL1201862, “PubChem BioAssay data set” (2004)
The source made the active and inactive calls.

How the values were obtained:
[1] = biological target: Photoreceptor-specific nuclear receptor (Homo sapiens, UniProt Q9Y5X4); type: functional, cell-based;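 note: CHO-S cells with Gal4-NCOR and VP16-NR2E3 two-hybrid luciferase reporter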
[2] = miR-122 activators in hepatoma reporter cells, dose response, cell-based, Huh7 psiCHECK-miR122, Renilla luciferase, cherry-picked (AID 651956); type: functional;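 note: huh7 hepatoma cells stably carrying a psiCHECK-2 miR-122 sensor plasmid; renilla luciferase signal reporting endogenous miR-122 activity after 48 h compound exposure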
[3] = HEK293T cytotoxicity, dose response, cytotoxicity control for miR-122 modulator project, cell-based, activator set, cherry-pick (AID 720690); type: functional;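 note: HEK293T human cells scored for general mammalian cytotoxicity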
[4] = biological target: SWI/SNF-related matrix-associated actin-dependent regulator of chromatin subfamily A member 2 (Homo sapiens, UniProt P51531); assay: Luminescence-based cell-based high throughput dose response assay to identify activators of the function of SWI/SNF related, matrix associated, actin dependent regulator of chromatin, subfamily a, member 2 (SMARCA2, BRM).; type: functional
Sequence of SWI/SNF-related matrix-associated actin-dependent regulator of chromatin subfamily A member 2 (P51531 whole entry): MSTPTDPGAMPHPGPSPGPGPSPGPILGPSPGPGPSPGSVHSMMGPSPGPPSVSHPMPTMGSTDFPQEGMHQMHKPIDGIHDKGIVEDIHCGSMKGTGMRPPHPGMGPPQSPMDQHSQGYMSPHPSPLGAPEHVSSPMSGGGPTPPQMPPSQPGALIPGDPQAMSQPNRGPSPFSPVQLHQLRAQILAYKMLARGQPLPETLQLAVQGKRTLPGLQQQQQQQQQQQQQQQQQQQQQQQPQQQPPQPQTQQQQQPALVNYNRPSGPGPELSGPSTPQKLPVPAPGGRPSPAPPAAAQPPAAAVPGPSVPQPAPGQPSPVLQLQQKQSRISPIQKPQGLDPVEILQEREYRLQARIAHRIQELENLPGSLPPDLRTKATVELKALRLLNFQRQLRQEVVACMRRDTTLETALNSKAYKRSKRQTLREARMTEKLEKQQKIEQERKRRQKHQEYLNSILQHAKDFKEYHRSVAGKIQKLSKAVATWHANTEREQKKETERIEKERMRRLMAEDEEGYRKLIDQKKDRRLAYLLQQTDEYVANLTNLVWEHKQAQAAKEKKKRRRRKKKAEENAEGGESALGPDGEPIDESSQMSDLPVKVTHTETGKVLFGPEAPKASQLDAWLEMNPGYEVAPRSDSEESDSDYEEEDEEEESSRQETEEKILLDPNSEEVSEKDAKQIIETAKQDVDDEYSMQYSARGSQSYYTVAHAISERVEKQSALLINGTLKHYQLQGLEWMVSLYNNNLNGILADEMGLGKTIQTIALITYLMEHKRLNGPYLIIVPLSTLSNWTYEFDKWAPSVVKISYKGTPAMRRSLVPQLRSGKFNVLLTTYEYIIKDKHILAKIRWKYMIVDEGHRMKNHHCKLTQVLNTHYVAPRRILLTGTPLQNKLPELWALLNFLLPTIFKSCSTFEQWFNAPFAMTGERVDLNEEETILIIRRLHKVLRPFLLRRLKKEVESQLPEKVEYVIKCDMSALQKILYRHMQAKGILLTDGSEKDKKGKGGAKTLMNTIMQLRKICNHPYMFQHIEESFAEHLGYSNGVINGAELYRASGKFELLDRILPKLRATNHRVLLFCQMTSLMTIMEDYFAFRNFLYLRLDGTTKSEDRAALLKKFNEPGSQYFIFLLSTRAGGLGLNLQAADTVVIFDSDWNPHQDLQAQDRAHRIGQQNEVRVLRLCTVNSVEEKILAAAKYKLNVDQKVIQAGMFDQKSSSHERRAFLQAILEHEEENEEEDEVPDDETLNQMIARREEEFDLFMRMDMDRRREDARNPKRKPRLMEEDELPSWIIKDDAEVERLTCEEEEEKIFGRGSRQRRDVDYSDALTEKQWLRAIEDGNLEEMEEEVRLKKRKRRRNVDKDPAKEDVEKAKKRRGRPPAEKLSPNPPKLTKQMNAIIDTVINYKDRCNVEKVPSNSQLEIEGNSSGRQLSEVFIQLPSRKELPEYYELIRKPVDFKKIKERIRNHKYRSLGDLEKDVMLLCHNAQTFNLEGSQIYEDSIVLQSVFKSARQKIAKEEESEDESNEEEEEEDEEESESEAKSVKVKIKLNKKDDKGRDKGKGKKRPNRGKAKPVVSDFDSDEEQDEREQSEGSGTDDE

[5] = Counterscreen for activators of the function of SWI/SNF related, matrix associated, actin dependent regulator of chromatin, subfamily a, member 2 (SMARCA2, BRM): Luminescence-based cell-based high throughput dose response assay to identify non-selective compounds using the VP16 reporter assay.; type: functional
[6] = inhibitors of intracellular T. cruzi replication, confirmation, NIH3T3 host cells, beta-gal luminescence (AID 2044); type: functional, cell-based;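 note: intracellular parasites grown in NIH/3T3 mouse fibroblasts as host cells; luminescent beta-galactosidase reporter signal from transgenic T. cruzi replicating inside host cells; inhibitors lower the luminescence signal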
[7] = cytotoxicity toward NIH3T3 fibroblasts, dose response, counter-screen, cell-based, ATP luminescence, mouse fibroblasts (AID 2010); type: functional;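 note: cells exposed to compound for about 90 hours before reading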
[8] = biological target: T1, Corticotropin-releasing factor receptor 2/Corticotropin-releasing factor-binding protein (Homo sapiens, UniProt P24387+Q13324); assay: Dose Response confirmation of uHTS hits for small molecule antagonists of the CRF-binding protein and CRF-R2 receptor complex.; type: functional; conditions: read-out: IC50_Mean
T1 sequence (Q13324 whole entry): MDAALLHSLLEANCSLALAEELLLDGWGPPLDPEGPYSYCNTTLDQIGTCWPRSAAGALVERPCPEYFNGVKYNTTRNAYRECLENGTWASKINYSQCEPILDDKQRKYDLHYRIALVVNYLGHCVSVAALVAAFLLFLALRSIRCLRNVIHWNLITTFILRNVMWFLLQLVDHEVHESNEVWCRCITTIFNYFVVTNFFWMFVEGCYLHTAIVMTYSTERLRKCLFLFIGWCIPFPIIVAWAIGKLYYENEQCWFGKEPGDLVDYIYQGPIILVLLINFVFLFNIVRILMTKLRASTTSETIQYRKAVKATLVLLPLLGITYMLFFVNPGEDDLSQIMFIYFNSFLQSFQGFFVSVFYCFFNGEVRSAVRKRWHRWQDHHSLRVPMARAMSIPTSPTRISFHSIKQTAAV
T1 sequence (P24387 whole entry): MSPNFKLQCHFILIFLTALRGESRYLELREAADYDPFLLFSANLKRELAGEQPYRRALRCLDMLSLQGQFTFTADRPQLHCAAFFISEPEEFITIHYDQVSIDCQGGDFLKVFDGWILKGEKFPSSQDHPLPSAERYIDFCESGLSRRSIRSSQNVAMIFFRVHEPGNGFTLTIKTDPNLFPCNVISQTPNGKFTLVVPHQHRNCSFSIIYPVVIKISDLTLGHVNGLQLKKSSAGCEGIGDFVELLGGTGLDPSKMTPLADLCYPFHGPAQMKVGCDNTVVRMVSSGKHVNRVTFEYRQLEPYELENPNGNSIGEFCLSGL

[9] = biological target: T1, Corticotropin-releasing factor receptor 2/Corticotropin-releasing factor-binding protein; assay: activators of CRF receptor 2 with binding protein – uHTS hits, confirmation (AID 602473); type: functional; conditions: read-out: EC50_Mean
[10] = CRF-BP/CRF-R2 complex antagonists, dose response, cell-based, uHTS hits, 384-well (AID 651639); type: functional, Homo sapiens; conditions: read-out: IC50_Mean
Mu-type opioid receptor = Mu-type opioid receptor (Homo sapiens, UniProt P35372); type: functional, cell-based;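 note: U2OS cells with beta-arrestin recruitment to OPRM1 by beta-gal complementation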
Sequence of Mu-type opioid receptor (P35372 whole entry): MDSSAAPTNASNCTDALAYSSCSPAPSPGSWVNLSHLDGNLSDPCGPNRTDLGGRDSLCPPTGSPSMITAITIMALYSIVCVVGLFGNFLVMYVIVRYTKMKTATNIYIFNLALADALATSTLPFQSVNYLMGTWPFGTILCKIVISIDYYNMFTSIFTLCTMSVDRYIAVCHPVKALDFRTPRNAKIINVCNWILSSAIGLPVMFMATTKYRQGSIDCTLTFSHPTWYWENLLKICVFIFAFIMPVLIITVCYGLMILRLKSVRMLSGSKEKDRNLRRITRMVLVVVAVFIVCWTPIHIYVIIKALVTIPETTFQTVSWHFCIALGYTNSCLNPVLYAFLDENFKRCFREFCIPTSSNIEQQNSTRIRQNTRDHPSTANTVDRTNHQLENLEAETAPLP

[11] = biological target: 5-hydroxytryptamine receptor 2A (Mus musculus, UniProt P35363); type: functional, cell-based;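 note: CHO-K1 cells with tagged receptor and beta-arrestin; agonist potency measured as compound-induced activation of the receptor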
Sequence of 5-hydroxytryptamine receptor 2A (P35363 whole entry): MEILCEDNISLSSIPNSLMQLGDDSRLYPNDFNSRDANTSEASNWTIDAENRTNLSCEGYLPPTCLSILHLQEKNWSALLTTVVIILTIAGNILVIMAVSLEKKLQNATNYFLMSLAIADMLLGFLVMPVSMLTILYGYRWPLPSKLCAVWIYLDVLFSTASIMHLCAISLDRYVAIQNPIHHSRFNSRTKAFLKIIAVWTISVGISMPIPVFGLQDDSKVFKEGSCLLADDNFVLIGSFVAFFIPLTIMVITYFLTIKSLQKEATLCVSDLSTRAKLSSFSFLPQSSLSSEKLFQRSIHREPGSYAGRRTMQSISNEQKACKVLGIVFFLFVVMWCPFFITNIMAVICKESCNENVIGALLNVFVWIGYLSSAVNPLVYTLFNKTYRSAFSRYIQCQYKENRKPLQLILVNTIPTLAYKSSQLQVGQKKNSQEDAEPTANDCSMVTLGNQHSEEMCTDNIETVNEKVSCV

[12] = biological target: Voltage-dependent T-type calcium channel subunit alpha-1H (Homo sapiens, UniProt O95180); type: functional;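 note: channel activity triggered by adding a high calcium stimulation buffer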
[13] = biological target: Disintegrin and metalloproteinase domain-containing protein 17 (Homo sapiens, UniProt P78536); assay: exosite inhibitors of ADAM17, dose response, biochemical (AID 743260)
Sequence of Disintegrin and metalloproteinase domain-containing protein 17 (P78536 whole entry, the tested form may be a part): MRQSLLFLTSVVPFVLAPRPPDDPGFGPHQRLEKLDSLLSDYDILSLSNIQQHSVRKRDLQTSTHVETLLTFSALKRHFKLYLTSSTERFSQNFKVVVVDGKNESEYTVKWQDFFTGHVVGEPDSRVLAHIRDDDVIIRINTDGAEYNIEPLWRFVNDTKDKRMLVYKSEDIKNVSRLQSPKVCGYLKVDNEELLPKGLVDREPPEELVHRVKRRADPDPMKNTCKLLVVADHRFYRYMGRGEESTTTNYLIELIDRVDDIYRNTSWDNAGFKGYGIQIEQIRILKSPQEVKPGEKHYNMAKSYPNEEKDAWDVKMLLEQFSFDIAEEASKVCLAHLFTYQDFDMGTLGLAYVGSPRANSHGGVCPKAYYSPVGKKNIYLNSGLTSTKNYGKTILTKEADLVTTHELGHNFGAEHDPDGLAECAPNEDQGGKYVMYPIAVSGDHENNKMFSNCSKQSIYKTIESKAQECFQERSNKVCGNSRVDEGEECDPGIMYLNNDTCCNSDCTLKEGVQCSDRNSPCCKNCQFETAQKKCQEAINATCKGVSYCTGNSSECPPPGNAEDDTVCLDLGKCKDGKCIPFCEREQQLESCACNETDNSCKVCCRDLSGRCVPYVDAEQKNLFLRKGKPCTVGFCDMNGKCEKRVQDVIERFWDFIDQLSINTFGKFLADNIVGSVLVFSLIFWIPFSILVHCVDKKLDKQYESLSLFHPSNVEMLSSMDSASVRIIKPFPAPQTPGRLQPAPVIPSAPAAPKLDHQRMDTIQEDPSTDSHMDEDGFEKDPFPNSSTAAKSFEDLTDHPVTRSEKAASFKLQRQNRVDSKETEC

[14] = ADAM10 protease inhibitors, dose response, selectivity assay for ADAM17 exosite inhibitor project, biochemical, FRET peptide substrate, recombinant human ADAM10 (AID 743259);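 note: ADAM10 enzyme cleaving a FRET peptide substrate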
Cytochrome P450 3A4 = Cytochrome P450 3A4 (Homo sapiens, UniProt P08684);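 note: CYP3A4 tested as one member of a cytochrome P450 panel screen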
Sequence of Cytochrome P450 3A4 (P08684 whole entry): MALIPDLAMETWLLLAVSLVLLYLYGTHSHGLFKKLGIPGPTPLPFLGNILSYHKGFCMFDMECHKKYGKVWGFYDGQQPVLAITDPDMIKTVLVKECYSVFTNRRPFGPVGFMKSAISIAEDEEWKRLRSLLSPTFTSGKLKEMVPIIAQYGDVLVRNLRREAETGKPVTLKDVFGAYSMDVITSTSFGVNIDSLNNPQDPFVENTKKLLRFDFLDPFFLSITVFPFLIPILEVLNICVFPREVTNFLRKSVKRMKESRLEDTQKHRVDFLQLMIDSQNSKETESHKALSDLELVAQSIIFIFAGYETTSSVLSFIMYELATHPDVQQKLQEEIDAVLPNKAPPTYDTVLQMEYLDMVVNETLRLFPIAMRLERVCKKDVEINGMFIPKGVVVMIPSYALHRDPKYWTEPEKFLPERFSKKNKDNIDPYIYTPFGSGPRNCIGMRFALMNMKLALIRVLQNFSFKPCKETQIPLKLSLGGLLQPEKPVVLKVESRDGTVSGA

[15] = Shn3 3'UTR reporter inhibitors, dose response, cell-based, Clone20 osteoblasts, firefly luciferase, cherry-picked (AID 624132); type: functional;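 note: firefly luciferase luminescence from reporter carrying the Shn3 3'UTR in osteoblasts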
[16] = HepG2 cell cytotoxicity, dose response, cytotoxicity control for Shn3 inhibitor project, CellTiter-Glo, cherry-picked (AID 624134); type: functional, cell-based
[17] = control 3'UTR Renilla luciferase suppression, dose response, counter-screen for Shn3 inhibitor project, cell-based, Clone20-Shn3RL, cherry-picked (AID 624133); type: functional
[18] = biological target: T2, RNA-binding protein pos-1 (Caenorhabditis elegans, UniProt G5EF15); assay: inhibitors of POS-1/mex-3 RNA binding, dose response, biochemical, fluorescence polarization (AID 1964);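 note: purified POS-1 fused to maltose binding protein made in E. coli; potency of compounds blocking POS-1 binding to fluorescent RNA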
T2 sequence (G5EF15 whole entry): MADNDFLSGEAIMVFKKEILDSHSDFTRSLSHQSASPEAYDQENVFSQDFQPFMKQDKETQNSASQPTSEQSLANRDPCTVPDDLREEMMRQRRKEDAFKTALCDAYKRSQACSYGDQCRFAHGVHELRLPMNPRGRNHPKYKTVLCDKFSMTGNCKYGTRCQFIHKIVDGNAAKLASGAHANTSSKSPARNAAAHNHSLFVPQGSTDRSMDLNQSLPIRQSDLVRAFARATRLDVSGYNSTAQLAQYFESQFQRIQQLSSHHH

[19] = biological target: T3, Zinc finger protein mex-5 (Caenorhabditis elegans, UniProt Q9XUB2); assay: MEX-5/TCR-2 RNA interaction inhibitors, dose response, biochemical, C. elegans, fluorescence polarization (AID 1960)
T3 sequence (Q9XUB2 whole entry): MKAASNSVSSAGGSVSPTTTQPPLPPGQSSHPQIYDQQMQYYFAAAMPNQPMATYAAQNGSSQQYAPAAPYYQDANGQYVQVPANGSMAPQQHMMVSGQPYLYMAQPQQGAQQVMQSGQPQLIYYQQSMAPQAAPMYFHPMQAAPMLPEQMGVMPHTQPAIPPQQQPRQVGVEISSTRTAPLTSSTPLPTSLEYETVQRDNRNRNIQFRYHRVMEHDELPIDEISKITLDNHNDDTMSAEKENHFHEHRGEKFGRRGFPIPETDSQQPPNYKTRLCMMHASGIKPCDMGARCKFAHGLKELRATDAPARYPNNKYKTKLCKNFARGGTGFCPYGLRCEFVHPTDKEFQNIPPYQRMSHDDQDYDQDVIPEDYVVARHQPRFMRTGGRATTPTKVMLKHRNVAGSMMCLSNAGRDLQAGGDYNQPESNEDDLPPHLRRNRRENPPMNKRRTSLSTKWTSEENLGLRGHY

Beta-lactamase [20] = biological target: Beta-lactamase (Pseudomonas aeruginosa, UniProt Q79MP6);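 note: biochemical dose-response test of metallo-beta-lactamase enzyme inhibition, read out by epi-absorbance; purified recombinant IMP-1 metallo-beta-lactamase with nitrocefin as substrate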
Beta-lactamase [21] = biological target: Beta-lactamase (Salmonella choleraesuis (strain SC-B67), UniProt Q5J463)
H9c2 = assay: cells; type: functional, cell-based; conditions: Rattus norvegicus, H9c2, Myocardium;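 note: confirmatory concentration-response retest of ultra-high-throughput screening hits for modulation of myocardial damage; cell death induced by hydrogen peroxide oxidative stress; compound pretreatment for 60 min then peroxide exposure for 2 h; potency is for protecting the cells against peroxide damage rather than for killing them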
[22] = biological target: T4, Polyadenylate-binding protein 1 (Homo sapiens, UniProt P11940); assay: PABP1 MLLE–PAM2 interaction inhibitors, dose response, miRNA deadenylation inhibitor project, biochemical, fluorescence polarization, Cy5-PAM2 peptide, secondary (AID 602260); type: functional; conditions: read-out: IC50_Mean
T4 sequence (P11940 whole entry): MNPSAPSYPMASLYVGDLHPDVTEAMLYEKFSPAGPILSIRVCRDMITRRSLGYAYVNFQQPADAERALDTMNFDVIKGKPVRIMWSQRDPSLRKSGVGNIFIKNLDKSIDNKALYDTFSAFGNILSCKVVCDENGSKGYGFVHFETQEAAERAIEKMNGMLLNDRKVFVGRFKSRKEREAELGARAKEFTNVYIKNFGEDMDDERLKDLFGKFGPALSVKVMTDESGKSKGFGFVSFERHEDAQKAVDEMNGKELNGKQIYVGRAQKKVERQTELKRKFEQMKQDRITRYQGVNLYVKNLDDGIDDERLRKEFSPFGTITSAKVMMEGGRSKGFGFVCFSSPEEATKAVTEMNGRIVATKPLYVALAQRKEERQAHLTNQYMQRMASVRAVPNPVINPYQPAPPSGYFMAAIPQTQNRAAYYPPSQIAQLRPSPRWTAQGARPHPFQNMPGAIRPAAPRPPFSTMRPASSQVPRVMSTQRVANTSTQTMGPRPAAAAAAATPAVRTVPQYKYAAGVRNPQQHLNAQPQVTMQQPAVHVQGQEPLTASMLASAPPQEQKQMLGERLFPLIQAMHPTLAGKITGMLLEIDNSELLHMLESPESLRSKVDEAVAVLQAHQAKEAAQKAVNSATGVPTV

[23] = biological target: T4, Polyadenylate-binding protein 1; assay: PABP1 MLLE–PAM2 binding inhibitor potency, dose response, biochemical, fluorescence polarization, FITC-PAM2 peptide (AID 602259); type: functional; conditions: read-out: IC50_Mean
[24] = CEM21 cell cytotoxicity, dose response, cytotoxicity control, plate reader, dry powder (AID 687026); type: functional, cell-based
Cryptococcus neoformans = assay: PubChem AID 686997; type: functional, organism-based
[25] = biological target: T5, Mitochondrial peptide methionine sulfoxide reductase (Bos taurus, UniProt P54149); assay: Absorbance-based biochemical high throughput dose response assay for activators of Methionine sulfoxide reductase A (MsrA).; type: functional
T5 sequence (P54149 whole entry): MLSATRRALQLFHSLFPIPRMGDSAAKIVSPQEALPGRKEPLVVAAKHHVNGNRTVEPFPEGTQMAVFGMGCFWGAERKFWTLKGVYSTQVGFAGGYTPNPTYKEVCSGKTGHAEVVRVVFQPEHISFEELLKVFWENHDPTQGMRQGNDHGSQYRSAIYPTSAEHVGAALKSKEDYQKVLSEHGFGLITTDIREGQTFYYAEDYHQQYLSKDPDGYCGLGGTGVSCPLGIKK

[26] = HeLa cell cytotoxicity, dose response, cytotoxicity control for MgcRacGAP inhibitor project (AID 624300); type: functional
[27] = biological target: T6, Rac GTPase-activating protein 1 (Homo sapiens, UniProt Q9H0H5); assay: MgcRacGAP GTPase-activating activity inhibitors, confirmation, biochemical, ADP Hunter fluorescence, primary and confirmatory (AID 624330); type: functional
T6 sequence (Q9H0H5 whole entry): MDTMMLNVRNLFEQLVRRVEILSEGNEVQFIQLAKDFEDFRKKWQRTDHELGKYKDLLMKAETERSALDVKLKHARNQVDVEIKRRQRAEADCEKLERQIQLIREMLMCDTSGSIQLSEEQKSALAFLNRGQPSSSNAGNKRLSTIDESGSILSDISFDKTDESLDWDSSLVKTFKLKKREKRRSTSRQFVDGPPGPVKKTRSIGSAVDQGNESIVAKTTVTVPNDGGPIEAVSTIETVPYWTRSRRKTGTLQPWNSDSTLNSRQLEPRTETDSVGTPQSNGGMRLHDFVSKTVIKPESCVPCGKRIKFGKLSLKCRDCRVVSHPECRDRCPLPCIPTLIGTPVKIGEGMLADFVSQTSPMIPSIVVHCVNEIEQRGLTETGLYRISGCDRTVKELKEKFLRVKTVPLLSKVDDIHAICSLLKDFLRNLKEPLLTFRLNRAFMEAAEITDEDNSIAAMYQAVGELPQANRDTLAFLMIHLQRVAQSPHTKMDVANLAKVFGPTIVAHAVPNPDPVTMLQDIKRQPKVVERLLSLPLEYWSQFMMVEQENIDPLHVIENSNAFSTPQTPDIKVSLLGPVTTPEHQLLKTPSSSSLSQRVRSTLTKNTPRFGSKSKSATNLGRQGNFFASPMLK

[28] = biological target: T7, Tyrosyl-DNA phosphodiesterase 2 (Homo sapiens, UniProt O95551); assay: human TDP2 enzyme inhibitors, dose response, biochemical, epi absorbance, IC50 (AID 743297)
T7 sequence (O95551 whole entry): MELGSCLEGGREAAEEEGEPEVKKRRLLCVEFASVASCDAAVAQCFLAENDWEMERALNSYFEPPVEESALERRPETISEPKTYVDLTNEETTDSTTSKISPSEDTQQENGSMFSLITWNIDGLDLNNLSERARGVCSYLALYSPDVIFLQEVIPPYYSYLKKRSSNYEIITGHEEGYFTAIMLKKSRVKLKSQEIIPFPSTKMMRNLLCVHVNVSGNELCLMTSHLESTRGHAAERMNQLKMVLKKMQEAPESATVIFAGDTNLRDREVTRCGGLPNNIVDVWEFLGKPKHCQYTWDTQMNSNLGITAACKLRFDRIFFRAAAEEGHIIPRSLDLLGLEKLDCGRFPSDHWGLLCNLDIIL

Sequence of Photoreceptor-specific nuclear receptor (Q9Y5X4 whole entry, the tested form may be a part): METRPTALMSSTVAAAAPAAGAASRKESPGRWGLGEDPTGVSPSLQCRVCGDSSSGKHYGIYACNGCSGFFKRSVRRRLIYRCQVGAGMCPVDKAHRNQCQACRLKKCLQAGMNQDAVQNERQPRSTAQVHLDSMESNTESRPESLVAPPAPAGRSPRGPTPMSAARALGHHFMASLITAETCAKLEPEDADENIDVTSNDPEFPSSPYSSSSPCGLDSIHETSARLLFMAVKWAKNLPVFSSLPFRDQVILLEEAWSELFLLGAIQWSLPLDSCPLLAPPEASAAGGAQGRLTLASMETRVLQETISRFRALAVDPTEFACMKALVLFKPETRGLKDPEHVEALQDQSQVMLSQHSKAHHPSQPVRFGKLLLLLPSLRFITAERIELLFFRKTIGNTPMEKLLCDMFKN

O=C(CSc1nnnn1-c1ccc2c(c1)OCCO2)Nc1nc2c(s1)CCCC2
IC50 [1]: 1.6 µM (active)

COc1ccccc1C#Cc1ccc2c(c1)O[C@@H](CN(C)Cc1cccnc1)[C@@H](C)CN([C@H](C)CO)S2(=O)=O
AC50 [2]: 25.4 µM (active) | AC50 [3]: 9.3 µM (active)

C=C1C(=O)OC2C1CCC(C)C1(O)C=CC(=O)C21C (stereo not given)
EC50 [4]: > 91.2 µM (inactive) | EC50 [5]: > 91.2 µM (inactive)

Cn1nc([N+](=O)[O-])nc1Oc1ccc(C(C)(C)C)cc1
EC50 [6]: 0.201 µM (active) | EC50 [7]: > 60 µM (inconclusive) | IC50 [8]: 12.7 µM (active) | EC50 [9]: > 53 µM (inactive) | IC50 [10]: 9.25 µM (active)

CC(C)=CC(=O)N1CC[C@@H](N2CCN(c3ccccc3F)CC2)[C@H](O)C1
EC50 (Mu-type opioid receptor): 92.4 µM (inactive) | EC50 [11]: 43.5 µM (inactive)

O=C(CC(c1ccccc1)c1ccccc1)Nc1ccc2c(c1)OCCO2
EC50 [12]: 33.6 µM (active) | IC50 [13]: > 69.5 µM (inactive) | IC50 [14]: > 69.5 µM (inactive) | AC50 (Cytochrome P450 3A4): 20 µM (inconclusive)

C=C1C(=O)OC2CC(C)C3C=CC(=O)C3(C)C(O)C12 (stereo not given)
AC50 [15]: < 0.26 µM (active) | AC50 [16]: 5.16 µM (active) | AC50 [17]: 2.68 µM (active) | IC50 [1]: 2.74 µM (active)

O=c1c2ccccc2sc2c(CO)ccc(NCCN3CCCCC3)c12
EC50 [4]: > 91.1 µM (inactive) | EC50 [5]: > 91.1 µM (inactive) | AC50 (Cytochrome P450 3A4): 6.31 µM (inconclusive)

CC(C)CC#Cc1ccc2c(c1)O[C@H](CN(C)C(=O)c1ccccc1)[C@H](C)CN([C@H](C)CO)S2(=O)=O
AC50 [2]: 27.2 µM (active) | AC50 [3]: 27.5 µM (active)

CCOC(=O)c1c2c3c(cccc3n(C)c1=O)C(=O)c1ccccc1-2
EC50 [18]: 8.67 µM (inconclusive) | EC50 [19]: 9.59 µM (active) | IC50 (Beta-lactamase [20]): > 59.6 µM (inactive) | IC50 (Beta-lactamase [21]): > 59.6 µM (inactive) | IC50 (H9c2): > 79 µM (inactive) | IC50 [22]: > 66 µM (inactive) | IC50 [23]: 37.2 µM (inactive)

Cc1ccc(-c2nnc3ccc4c(C(F)(F)F)cc(C(F)(F)F)nc4n23)cc1
AC50 [24]: > 70 µM (inactive)

CC(C)(C)c1ccc(-c2nc(NCc3cccnc3)c3ccccc3n2)cc1
IC50 [13]: > 69.5 µM (inactive) | IC50 [14]: > 7.72 µM (active)

COC(=O)C1=C(C)N(Cc2ccccc2)C(=S)NC1c1ccc(Cl)cc1 (stereo not given)
AC50 (Cryptococcus neoformans): 28.7 µM (active)

COc1cc(C=c2c3ccccc3n3c2cc(-c2ccccc2)[n+]3C)cc(OC)c1OC
EC50 [25]: > 104 µM (inactive) | CC50 [26]: 100 µM (active) | IC50 [27]: 323 µM (active) | IC50 [28]: > 128 µM (inactive)
